Source: patent US8349824B2, “Triazolopyridine compounds” (Hoffmann-La Roche Inc., priority 2010, dated 2013)

These compounds were tested against T1, human PDE10A full length (Homo sapiens, UniProt Q9Y233) (assay: PDE10A Scintillation Proximity Assay (SPA), human PDE10A full length assay). Settings: 50 nM cGMP + 50 nM [3H]-cGMP, 20 minutes at room temperature, read-out: PDE10A inhibition IC50.
T1 construct: purchased Enzo Life Science, Lausen, Switzerland SE-534
T1 sequence (Q9Y233 1-779 isoform Q9Y233-1): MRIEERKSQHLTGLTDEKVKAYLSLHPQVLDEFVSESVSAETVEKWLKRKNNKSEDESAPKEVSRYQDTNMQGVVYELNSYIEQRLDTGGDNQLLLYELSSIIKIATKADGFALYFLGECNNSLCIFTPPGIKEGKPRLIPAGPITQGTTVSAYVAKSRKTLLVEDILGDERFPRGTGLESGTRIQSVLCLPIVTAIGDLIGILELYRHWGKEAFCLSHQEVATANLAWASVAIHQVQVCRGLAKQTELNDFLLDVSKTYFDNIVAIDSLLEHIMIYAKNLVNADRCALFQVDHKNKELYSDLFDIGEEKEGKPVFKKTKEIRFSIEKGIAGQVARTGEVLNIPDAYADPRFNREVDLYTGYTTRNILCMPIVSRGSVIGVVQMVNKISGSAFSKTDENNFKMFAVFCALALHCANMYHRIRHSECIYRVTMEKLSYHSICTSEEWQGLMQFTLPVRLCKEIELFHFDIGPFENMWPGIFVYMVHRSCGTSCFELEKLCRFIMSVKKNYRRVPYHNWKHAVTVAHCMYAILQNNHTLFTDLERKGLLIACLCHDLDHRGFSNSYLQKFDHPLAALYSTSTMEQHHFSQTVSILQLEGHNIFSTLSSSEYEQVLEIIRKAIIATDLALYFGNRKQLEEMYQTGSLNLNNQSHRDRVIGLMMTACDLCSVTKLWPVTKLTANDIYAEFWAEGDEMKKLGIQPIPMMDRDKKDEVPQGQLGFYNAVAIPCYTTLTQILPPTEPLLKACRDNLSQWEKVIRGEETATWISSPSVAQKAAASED
Assay type: biochemical
Experimental: The following test was carried out in order to determine the activity of the compounds of the present invention. PDE10 activity of the compounds of the present invention was determined using a Scintillation Proximity Assay (SPA)-based method similar to the one previously described (Fawcett, L. et al., Proc Natl Acad Sci USA (2000) 97(7):3702-3707).
The human PDE10A full length assay was performed in 96-well micro titer plates. The reaction mixture of 50 μl contained 20 mM HEPES pH=7.5/10 mM MgCl2/0.05 mg/ml BSA (Sigma cat. #A-7906), 50 nM cGMP (Sigma, cat. #G6129) and 50 nM [^3H]-cGMP (GE Healthcare, cat. #TRK392 S.A. 13.2Ci/mmol), 3.75 ng/well PDE10A enzyme (Enzo Life Science, Lausen, Switzerland cat #SE-534) with or without a specific test compound. A range of concentrations of the potential inhibitor was used to generate data for calculating the concentration of inhibitor resulting in 50% of the effect (e.g. IC50, the concentration of the competitor inhibiting PDE10A activity by 50%). Non-specific activity was tested without the enzyme. The reaction was initiated by the addition of the substrate solution (cGMP and [^3H]-cGMP) and allowed to progress for 20 minutes at room temperature. The reaction was terminated by adding 25 μl of YSi-SPA scintillation beads (GE Healthcare, cat. #RPNQ0150) in 18 mM zinc sulphate solution (stop reagent). After 1 h under shaking, the plate was centrifuged one minute at 170 g to allow beads to settle. Afterwards, radioactive counts were measured on a Perkin Elmer TopCount Scintillation plate reader.
`COCCN(CCOC)C(=O)c1cnn(C)c1C(=O)Nc1ccn2nc(-c3ccccc3)nc2c1` [Example 6, N4,N4-bis(2-methoxyethyl)-1-methyl-N5-(2-phenyl-[1,2,4]triazolo[1,5-a]pyridin-7-yl)-1H-pyrazole-4,5-dicarboxamide] gave an IC50 of 0.43 nM.
`Cn1ncc(C(=O)N2CCOCC2)c1C(=O)Nc1ccn2nc(-c3ccccc3)nc2c1` [Example 12, 1-Methyl-4-(morpholine-4-carbonyl)-N-(2-phenyl-[1,2,4]triazolo[1,5-a]pyridin-7-yl)-1H-pyrazole-5-carboxamide] showed an IC50 of 0.27 nM.
Compound `CN(CCF)C(=O)c1cnn(C)c1C(=O)Nc1ccn2nc(N3CCOCC3)nc2c1` [Example 21, N4-(2-Fluoroethyl)-N4,1-dimethyl-N5-(2-morpholino-[1,2,4]triazolo[1,5-a]pyridin-7-yl)-1H-pyrazole-4,5-dicarboxamide] has an IC50 of 26.5 nM.
In the case of `CN(CCF)C(=O)c1cnn(C)c1C(=O)Nc1ccn2nc(-c3ccccc3)nc2c1` [Example 26, 2-Methyl-2H-pyrazole-3,4-dicarboxylic acid 4-[(2-fluoro-ethyl)-methyl-amide]3-[(2-phenyl-[1,2,4]triazolo[1,5-a]pyridin-7-yl)-amide]], the IC50 is reported as 0.43 nM.
Compound `CC(C)OC(=O)c1cnn(C)c1C(=O)Nc1ccn2nc(-c3ccccc3)nc2c1` [Example 27, Isopropyl 1-methyl-5-(2-phenyl-[1,2,4]triazolo[1,5-a]pyridin-7-ylcarbamoyl)-1H-pyrazole-4-carboxylate] has an IC50 of 7.9 nM.
`Cn1ncc(C(=O)N2CCC2)c1C(=O)Nc1ccn2nc(C(=O)NCCC(F)(F)F)nc2c1` [Example 33, 7-(4-(Azetidine-1-carbonyl)-1-methyl-1H-pyrazole-5-carboxamido)-N-(3,3,3-trifluoropropyl)-[1,2,4]triazolo[1,5-a]pyridine-2-carboxamide] gave an IC50 of 28.6 nM.
In the case of `Cn1ncc(C(=O)N2CCCC2)c1C(=O)Nc1ccn2nc(N3CCOCC3)nc2c1` [Example 42, 1-Methyl-N-(2-morpholino-[1,2,4]triazolo[1,5-a]pyridin-7-yl)-4-(pyrrolidine-1-carbonyl)-1H-pyrazole-5-carboxamide], the IC50 is reported as 5.15 nM.
For `Cn1ncc(C(=O)N2CC(F)C2)c1C(=O)Nc1ccn2nc(N3CCOCC3)nc2c1` [Example 43, 4-(3-Fluoroazetidine-1-carbonyl)-1-methyl-N-(2-morpholino-[1,2,4]triazolo[1,5-a]pyridin-7-yl)-1H-pyrazole-5-carboxamide], the IC50 was 3.77 nM.
Work on `CN(C(=O)c1cnn(C)c1C(=O)Nc1ccn2nc(N3CCOCC3)nc2c1)C1CC1` [Example 53, N4-cyclopropyl-N4,1-dimethyl-N5-(2-morpholino-[1,2,4]triazolo[1,5-a]pyridin-7-yl)-1H-pyrazole-4,5-dicarboxamide] yielded an IC50 of 1.12 nM.
In the case of `CN(CC(F)(F)F)C(=O)c1cnn(C)c1C(=O)Nc1ccn2nc(N3CCOCC3)nc2c1` [Example 54, 2-Methyl-2H-pyrazole-3,4-dicarboxylic acid 4-[methyl-(2,2,2-trifluoro-ethyl)-amide]3-[(2-morpholin-4-yl-[1,2,4]triazolo[1,5-a]pyridin-7-yl)-amide]], the IC50 is reported as 80.5 nM.
Compound `CN(C(=O)c1cnn(C)c1C(=O)Nc1ccn2nc(-c3cccnc3)nc2c1)C1CC1` [Example 55, 2-Methyl-2H-pyrazole-3,4-dicarboxylic acid 4-(cyclopropyl-methyl-amide)3-[(2-pyridin-3-yl-[1,2,4]triazolo[1,5-a]pyridin-7-yl)-amide]] has an IC50 of 0.45 nM.
`CN(C)C(=O)c1nc2cc(NC(=O)c3c(C(=O)N4CCC4)cnn3C)ccn2n1` [Example 62, 7-{[4-(Azetidine-1-carbonyl)-2-methyl-2H-pyrazole-3-carbonyl]-amino}-[1,2,4]triazolo[1,5-a]pyridine-2-carboxylic acid dimethylamide] gave an IC50 of 112 nM.
With `COc1ccccc1-c1nc2cc(NC(=O)c3c(C(=O)N4CCOCC4)cnn3C)ccn2n1` [Example 69, 2-Methyl-4-(morpholine-4-carbonyl)-2H-pyrazole-3-carboxylic acid [2-(2-methoxy-phenyl)-[1,2,4]triazolo[1,5-a]pyridin-7-yl]-amide] the IC50 was 0.68 nM.
In the case of `COc1cccc(-c2nc3cc(NC(=O)c4c(C(=O)N5CCC5)cnn4C)ccn3n2)c1` [Example 75, 4-(Azetidine-1-carbonyl)-2-methyl-2H-pyrazole-3-carboxylic acid [2-(3-methoxy-phenyl)-[1,2,4]triazolo[1,5-a]pyridin-7-yl]-amide], the IC50 is reported as 0.31 nM.
With `COc1cccc(-c2nc3cc(NC(=O)c4c(C(=O)N5CCOCC5)cnn4C)ccn3n2)c1` [Example 76, 2-Methyl-4-(morpholine-4-carbonyl)-2H-pyrazole-3-carboxylic acid [2-(3-methoxy-phenyl)-[1,2,4]triazolo[1,5-a]pyridin-7-yl]-amide] the IC50 was 5.15 nM.
In the case of `COCCN(C)C(=O)c1cnn(C)c1C(=O)Nc1ccn2nc(-c3cccc(OC)c3)nc2c1` [Example 77, 2-Methyl-2H-pyrazole-3,4-dicarboxylic acid 4-[(2-methoxy-ethyl)-methyl-amide]3-{[2-(3-methoxy-phenyl)-[1,2,4]triazolo[1,5-a]pyridin-7-yl]-amide}], the IC50 is reported as 0.57 nM.
In the case of `COc1cccc(-c2nc3cc(NC(=O)c4c(C(=O)N(C)C)cnn4C)ccn3n2)c1` [Example 78, 2-Methyl-2H-pyrazole-3,4-dicarboxylic acid 4-dimethylamide 3-{[2-(3-methoxy-phenyl)[1,2,4]triazolo[1,5-a]pyridin-7-yl]-amide}], the IC50 is reported as 0.32 nM.
In the case of `CCN(C)C(=O)c1cnn(C)c1C(=O)Nc1ccn2nc(-c3cccc(OC)c3)nc2c1` [Example 79, 2-Methyl-2H-pyrazole-3,4-dicarboxylic acid 4-(ethyl-methyl-amide)3-{[2-(3-methoxy-phenyl)-[1,2,4]triazolo[1,5-a]pyridin-7-yl]-amide}], the IC50 is reported as 1.73 nM.
`Cn1ncc(C(=O)N2CCOCC2)c1C(=O)Nc1ccn2nc(-c3cccc(O)c3)nc2c1` [Example 80, 2-Methyl-4-(morpholine-4-carbonyl)-2H-pyrazole-3-carboxylic acid [2-(3-hydroxy-phenyl)-[1,2,4]triazolo[1,5-a]pyridin-7-yl]-amide] showed an IC50 of 0.41 nM.
`Cn1ncc(C(=O)N2CCOCC2)c1C(=O)Nc1ccn2nc(-c3cccc(OCCF)c3)nc2c1` [Example 81, 2-Methyl-4-(morpholine-4-carbonyl)-2H-pyrazole-3-carboxylic acid {2-[3-(2-fluoro-ethoxy)-phenyl]-[1,2,4]triazolo[1,5-a]pyridin-7-yl}-amide] showed an IC50 of 0.59 nM.
With `Cn1ncc(C(=O)N2CCOCC2)c1C(=O)Nc1ccn2nc(-c3cccc(OCF)c3)nc2c1` [Example 82, 2-Methyl-4-(morpholine-4-carbonyl)-2H-pyrazole-3-carboxylic acid [2-(3-fluoromethoxy-phenyl)-[1,2,4]triazolo[1,5-a]pyridin-7-yl]-amide] the IC50 was 0.78 nM.
`CCN(C)C(=O)c1cnn(C)c1C(=O)Nc1ccn2nc(-c3cccc(OCCF)c3)nc2c1` [Example 83, 2-Methyl-2H-pyrazole-3,4-dicarboxylic acid 4-(ethyl-methyl-amide)3-({2-[3-(2-fluoro-ethoxy)-phenyl]-[1,2,4]triazolo[1,5-a]pyridin-7-yl}-amide)] gave an IC50 of 0.63 nM.
For `CCN(C)C(=O)c1cnn(C)c1C(=O)Nc1ccn2nc(-c3cccc(OCF)c3)nc2c1` [Example 84, 2-Methyl-2H-pyrazole-3,4-dicarboxylic acid 4-(ethyl-methyl-amide)3-{[2-(3-fluoromethoxy-phenyl)-[1,2,4]triazolo[1,5-a]pyridin-7-yl]-amide}], the IC50 was 0.54 nM.
`CN(C)C(=O)c1cnn(C)c1C(=O)Nc1ccn2nc(-c3cccc(OCCF)c3)nc2c1` [Example 85, 2-Methyl-2H-pyrazole-3,4-dicarboxylic acid 4-dimethylamide 3-({2-[3-(2-fluoro-ethoxy)-phenyl]-[1,2,4]triazolo[1,5-a]pyridin-7-yl}-amide)] showed an IC50 of 0.73 nM.
In the case of `CN(C)C(=O)c1cnn(C)c1C(=O)Nc1ccn2nc(-c3cccc(OCF)c3)nc2c1` [Example 86, 2-Methyl-2H-pyrazole-3,4-dicarboxylic acid 4-dimethylamide 3-{[2-(3-fluoromethoxy-phenyl)-[1,2,4]triazolo[1,5-a]pyridin-7-yl]-amide}], the IC50 is reported as 0.6 nM.
`COCCN(C)C(=O)c1cnn(C)c1C(=O)Nc1ccn2nc(-c3cccc(O)c3)nc2c1` [Example 87, 2-Methyl-2H-pyrazole-3,4-dicarboxylic acid 3-{[2-(3-hydroxy-phenyl)-[1,2,4]triazolo[1,5-a]pyridin-7-yl]-amide} 4-[(2-methoxy-ethyl)-methyl-amide]] was tested, and the IC50 was 0.43 nM.
`COCCN(C)C(=O)c1cnn(C)c1C(=O)Nc1ccn2nc(-c3cccc(OCCF)c3)nc2c1` [Example 88, 2-Methyl-2H-pyrazole-3,4-dicarboxylic acid 3-({2-[3-(2-fluoro-ethoxy)-phenyl]-[1,2,4]triazolo[1,5-a]pyridin-7-yl}-amide)4-[(2-methoxy-ethyl)-methyl-amide]] was tested, and the IC50 was 0.42 nM.
